# Data: ChEMBL document CHEMBL4823252 (J Med Chem, 2021)
# Experiments:
# MOLM-13 [1] = assay: Induction of apoptosis in human MOLM-13 cells assessed as necrotic cells at 100 nM incubated for 24 hrs by flow cytometry (reference value: 0.45%); assay type: functional
# MV4-11 [2] = assay: Induction of apoptosis in human MV4-11 cells assessed as early apoptotic cells at 1 nM incubated for 24 hrs by flow cytometry (reference value: 0.31%); assay type: functional
# MV4-11 [3] = assay: Induction of cell cycle arrest in human MV4-11 cells assessed as accumulation at G1 phase at 10 nM incubated for 24 hrs by flow cytometry (reference value: 64.73%); assay type: functional
# MOLM-13 [4] = assay: Induction of cell cycle arrest in human MOLM-13 cells assessed as accumulation at G1 phase at 10 nM incubated for 24 hrs by flow cytometry (reference value: 69.08%); assay type: functional
# MV4-11 [5] = assay: Induction of apoptosis in human MV4-11 cells assessed as early apoptotic cells at 10 nM incubated for 24 hrs by flow cytometry (reference value: 0.31%); assay type: functional
# MOLM-13 [6] = assay: Antiproliferative activity against human sunitinib-resistant MOLM-13 cells at 1000 nM incubated for 72 hrs by CCK8 assay relative to control; assay type: functional
# MV4-11 [7] = assay: Induction of cell cycle arrest in human MV4-11 cells assessed as accumulation at S phase at 1 nM incubated for 24 hrs by flow cytometry (reference value: 16.31%); assay type: functional
# MOLM-13 [8] = assay: Antiproliferative activity against human sunitinib-resistant MOLM-13 cells at 333 nM incubated for 72 hrs by CCK8 assay relative to control; assay type: functional
# MOLM-13 [9] = assay: Induction of cell cycle arrest in human MOLM-13 cells assessed as accumulation at G1 phase at 1 nM incubated for 24 hrs by flow cytometry (reference value: 69.08%); assay type: functional
# MV4-11 [10] = assay: Induction of cell cycle arrest in human MV4-11 cells assessed as accumulation at S phase at 10 nM incubated for 24 hrs by flow cytometry (reference value: 16.31%); assay type: functional
# MOLM-13 [11] = assay: Antiproliferative activity against human quizartinib-resistant MOLM-13 cells at 111 nM incubated for 72 hrs by CCK8 assay relative to control; assay type: functional
# MOLM-13 [12] = assay: Induction of apoptosis in human MOLM-13 cells assessed as necrotic apoptotic cells at 1 nM incubated for 24 hrs by flow cytometry (reference value: 0.45%); assay type: functional
# MV4-11 [13] = assay: Induction of apoptosis in human MV4-11 cells assessed as necrotic cells at 10 nM incubated for 24 hrs by flow cytometry (reference value: 0.25%); assay type: functional
# MOLM-13 [14] = assay: Induction of apoptosis in human MOLM-13 cells assessed as viable cells at 100 nM incubated for 24 hrs by flow cytometry (reference value: 92.83%); assay type: functional; settings: read-out: Activity
# MV4-11 [15] = assay: Induction of apoptosis in human MV4-11 cells assessed as viable cells at 1 nM incubated for 24 hrs by flow cytometry (reference value: 98.26%); assay type: functional; settings: read-out: Activity
# MV4-11 [16] = assay: Induction of apoptosis in human MV4-11 cells assessed as viable cells at 10 nM incubated for 24 hrs by flow cytometry (reference value: 98.86%); assay type: functional; settings: read-out: Activity
# MOLM-13 [17] = assay: Antiproliferative activity against human sunitinib-resistant MOLM-13 cells at 1 nM incubated for 72 hrs by CCK8 assay relative to control; assay type: functional
# MOLM-13 [18] = assay: Induction of cell cycle arrest in human MOLM-13 cells assessed as accumulation at sub-G1 phase at 1 nM incubated for 24 hrs by flow cytometry (reference value: 4.24%); assay type: functional
# MOLM-13 [19] = assay: Induction of cell cycle arrest in human MOLM-13 cells assessed as accumulation at S phase at 10 nM incubated for 24 hrs by flow cytometry (reference value: 16.28%); assay type: functional
# MV4-11 [20] = assay: Antiproliferative activity against human MV4-11 cells incubated for 72 hrs by Cell Counting Kit-8 assay; assay type: functional, cell-based; settings: MV4-11, 72 h
# MOLM-13 [21] = assay: Antiproliferative activity against human quizartinib-resistant MOLM-13 cells at 4 nM incubated for 72 hrs by CCK8 assay relative to control; assay type: functional
# MOLM-13 [22] = assay: Induction of cell cycle arrest in human MOLM-13 cells assessed as accumulation at sub-G1 phase at 100 nM incubated for 24 hrs by flow cytometry (reference value: 4.24%); assay type: functional
# MOLM-13 [23] = assay: Antiproliferative activity against human MOLM-13 cells incubated for 72 hrs by Cell Counting Kit-8 assay; assay type: functional, cell-based; settings: MOLM-13, 72 h
# MOLM-13 [24] = assay: Antiproliferative activity against human sunitinib-resistant MOLM-13 cells at 111 nM incubated for 72 hrs by CCK8 assay relative to control; assay type: functional
# MOLM-13 [25] = assay: Induction of apoptosis in human MOLM-13 cells assessed as late apoptotic cells at 100 nM incubated for 24 hrs by flow cytometry (reference value: 4.54%); assay type: functional
# MOLM-13 [26] = assay: Antiproliferative activity against human quizartinib-resistant MOLM-13 cells at 1000 nM incubated for 72 hrs by CCK8 assay relative to control; assay type: functional
# MOLM-13 [27] = assay: Antiproliferative activity against human quizartinib-resistant MOLM-13 cells at 12 nM incubated for 72 hrs by CCK8 assay relative to control; assay type: functional
# MV4-11 [28] = assay: Induction of cell cycle arrest in human MV4-11 cells assessed as accumulation at G2/M phase at 100 nM incubated for 24 hrs by flow cytometry (reference value: 7.29%); assay type: functional
# MV4-11 [29] = assay: Induction of apoptosis in human MV4-11 cells assessed as necrotic cells at 1 nM incubated for 24 hrs by flow cytometry (reference value: 0.25%); assay type: functional
# MOLM-13 [30] = assay: Antiproliferative activity against human quizartinib-resistant MOLM-13 cells at 37 nM incubated for 72 hrs by CCK8 assay relative to control; assay type: functional
# MV4-11 [31] = assay: Induction of cell cycle arrest in human MV4-11 cells assessed as accumulation at G1 phase at 1 nM incubated for 24 hrs by flow cytometry (reference value: 64.73%); assay type: functional
# MV4-11 [32] = assay: Induction of cell cycle arrest in human MV4-11 cells assessed as accumulation at G2/M phase at 1 nM incubated for 24 hrs by flow cytometry (reference value: 7.29%); assay type: functional
# MOLM-13 [33] = assay: Induction of apoptosis in human MOLM-13 cells assessed as late apoptotic cells at 10 nM incubated for 24 hrs by flow cytometry (reference value: 4.54%); assay type: functional
# MOLM-13 [34] = assay: Induction of cell cycle arrest in human MOLM-13 cells assessed as accumulation at S phase at 1 nM incubated for 24 hrs by flow cytometry (reference value: 16.28%); assay type: functional
# MV4-11 [35] = assay: Induction of cell cycle arrest in human MV4-11 cells assessed as accumulation at S phase at 100 nM incubated for 24 hrs by flow cytometry (reference value: 16.31%); assay type: functional
# MV4-11 [36] = assay: Induction of apoptosis in human MV4-11 cells assessed as late apoptotic cells at 1 nM incubated for 24 hrs by flow cytometry (reference value: 0.58%); assay type: functional
# MOLM-13 [37] = assay: Induction of apoptosis in human MOLM-13 cells assessed as late apoptotic cells at 1 nM incubated for 24 hrs by flow cytometry (reference value: 4.54%); assay type: functional
# MOLM-13 [38] = assay: Induction of apoptosis in human MOLM-13 cells assessed as viable cells at 1 nM incubated for 24 hrs by flow cytometry (reference value: 92.83%); assay type: functional; settings: read-out: Activity
# MV4-11 [39] = assay: Induction of cell cycle arrest in human MV4-11 cells assessed as accumulation at G1 phase at 100 nM incubated for 24 hrs by flow cytometry (reference value: 64.73%); assay type: functional
SMILES,Activity (MOLM-13 [1]) [%],Activity (MV4-11 [2]) [%],Activity (MV4-11 [3]) [%],Activity (MOLM-13 [4]) [%],Activity (MV4-11 [5]) [%],Activity (MOLM-13 [6]) [%],Activity (MV4-11 [7]) [%],Activity (MOLM-13 [8]) [%],Activity (MOLM-13 [9]) [%],Activity (MV4-11 [10]) [%],Activity (MOLM-13 [11]) [%],Activity (MOLM-13 [12]) [%],Activity (MV4-11 [13]) [%],viability at 0.1 µM (MOLM-13 [14]) [%],viability at 0.001 µM (MV4-11 [15]) [%],viability at 0.01 µM (MV4-11 [16]) [%],Activity (MOLM-13 [17]) [%],Activity (MOLM-13 [18]) [%],Activity (MOLM-13 [19]) [%],IC50 (MV4-11 [20]) [nM],also measured
CCN(CC)CCNC(=O)c1c(C)[nH]c(/C=C2\C(=O)Nc3ccc(F)cc32)c1C [SUNITINIB],1.14,0.29,68.1,63.75,2.79,25.9,13.27,6.3,65.44,2.69,0.5,0.24,1.22,44.3,98.4,89.4,5.3,6.13,5.58,31.5,Activity (MOLM-13 [21]): -0.6%; Activity (MOLM-13 [22]): 49.02%; IC50 (MOLM-13 [23]): 69.6 nM; Activity (MOLM-13 [24]): 1.3%; Activity (MOLM-13 [25]): 23.49%; Activity (MOLM-13 [26]): 26.6%; Activity (MOLM-13 [27]): -1.1%; Activity (MV4-11 [28]): 2.68%; Activity (MV4-11 [29]): 0.32%; Activity (MOLM-13 [30]): -0.5%; Activity (MV4-11 [31]): 66.78%; Activity (MV4-11 [32]): 5.86%; Activity (MOLM-13 [33]): 9.47%; Activity (MOLM-13 [34]): 16.42%; Activity (MV4-11 [35]): 3.91%; Activity (MV4-11 [36]): 1.03%; Activity (MOLM-13 [37]): 3.32%; viability at 0.001 µM (MOLM-13 [38]): 92.5%; Activity (MV4-11 [39]): 60.29%
Cc1c(NC(=O)CCN2CCCC2)c[nH]c1/C=C1\C(=O)Nc2ccc(F)cc21,0.75,0.39,66.28,59.1,3.5,67.8,11.6,18.6,68.95,2.41,2.9,0.22,1.93,43.8,97.2,88,-4.2,6.76,4.63,23.5,Activity (MOLM-13 [21]): 3.3%; Activity (MOLM-13 [22]): 42.35%; IC50 (MOLM-13 [23]): 35.5 nM; Activity (MOLM-13 [24]): 4.9%; Activity (MOLM-13 [25]): 20.79%; Activity (MOLM-13 [26]): 60.3%; Activity (MOLM-13 [27]): 2.6%; Activity (MV4-11 [28]): 2.51%; Activity (MV4-11 [29]): 1.38%; Activity (MOLM-13 [30]): 3.8%; Activity (MV4-11 [31]): 69.79%; Activity (MV4-11 [32]): 3.98%; Activity (MOLM-13 [33]): 14.5%; Activity (MOLM-13 [34]): 15.09%; Activity (MV4-11 [35]): 4.06%; Activity (MV4-11 [36]): 0.99%; Activity (MOLM-13 [37]): 4.3%; viability at 0.001 µM (MOLM-13 [38]): 91.8%; Activity (MV4-11 [39]): 62.23%
